According to patent US8614182B2 (Jiangsu Hansoh Pharmaceuticals Co., Ltd., priority 2009, dated 2013):
Non-standard residues stand in square brackets, D forms with d. Residues, ends and D or L forms follow the SMILES beside them. *: point of attachment. εLys(Nα-Palmitoyl) = CCCCCCCCCCCCCCCC(=O)N[C@@H](CCCCN*)C(=O)O; Aib = CC(C)(N)C(=O)O

Legend:
[1] = cited from earlier work
[2] = system: db/db mice with type 2 diabetes; assay: Random blood glucose of db/db mice after single subcutaneous injection; format: in vivo; conditions: for random blood glucose: n = 8; for decrease rate of random blood glucose: versus control group
Experimental: db/db mice with type 2 diabetes were divided into six groups based on a random blood glucose and body weight (8 per group). […] The random blood glucose of the mice is determined at differete time after administration.
Preparation method: 1 bottle of the compound (2 mg/bottle) was dissolved with double-distilled water to prepare a colorless and transparent solution of which the concentration is 2 mg/mL. […] “ACCU-CHEK® Advantage” blood glucose meter form Roche was used to determine the blood glucose.
Route and volume of administration: Single subcutaneous injection dose, dose volume was 5 mL/kg. […]
The random blood glucoses of db/db mice were measured.
Each group has 8 mice, half male and half female. The animals of each group were administered with the test compounds or solvent control respectively through single subcutaneous injection.

[3] = target: T1, Glucagon-like peptide-1 receptor (GLP1R) (Homo sapiens, UniProt P43220); assay: Agonist activity on GLP1R, cAMP response element luciferase reporter gene in HEK293 cells; format: cell-based; conditions: HEK293 cells stably transfected with GLP1R and pCRE-Luc, 5 hours incubation; read-out: Maximum reaction rate
T1 construct: expressed in transfected cells; host or cells: HEK293
T1 sequence (P43220 24-463, species assumed): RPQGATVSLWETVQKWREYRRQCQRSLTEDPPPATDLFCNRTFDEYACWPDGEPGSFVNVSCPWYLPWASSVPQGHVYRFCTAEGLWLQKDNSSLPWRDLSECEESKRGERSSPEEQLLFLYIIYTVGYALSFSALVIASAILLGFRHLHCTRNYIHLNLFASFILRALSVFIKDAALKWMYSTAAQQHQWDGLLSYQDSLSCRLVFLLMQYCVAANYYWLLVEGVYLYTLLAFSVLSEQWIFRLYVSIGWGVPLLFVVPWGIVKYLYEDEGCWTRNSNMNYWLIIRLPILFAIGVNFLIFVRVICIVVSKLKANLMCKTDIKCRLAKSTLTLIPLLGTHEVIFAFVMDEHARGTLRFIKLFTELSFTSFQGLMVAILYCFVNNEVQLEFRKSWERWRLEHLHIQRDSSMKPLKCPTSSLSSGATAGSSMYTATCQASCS
Text: GLP1R is a receptor coupled with Gs protein, of which the binding with the agonists will result in an increase of intracellular cAMP concentration. In the present experiment, GLP1R and the luciferase reporter gene plasmid regulated by cAMP response elements are co-transfected into HEK293 cells. When the compound binds to the receptor and activates the receptors, the expression of the luciferase will increase. The activation status of the compound to GLP1R can be learned by testing the activity of the luciferase.
2. The compounds or positive drugs having a certain concentration gradient were added (3 wells per concentration) and incubated at 37° C. for 5 hours. The negative control was solvent DMSO.
3. 50 μl culture medium was taken from each well, and 50 μl of the luciferase substrate were added and vortexed for 10 minutes.
4. 80 μl reaction solution was taken and transferred to a white 96 well plate, then detected on the Invision microplate reader (enzyme-labelling measuring instrument).

Compound: glucagon-like peptide-1 [GLP-1]
- in vivo half-life [1]: about 2 minutes

Compound: CCCCCCCCCCCCCCCC(=O)N[C@@H](CCCCNC(=O)[C@H](CO)NC(=O)[C@@H]1CCCN1C(=O)[C@@H]1CCCN1C(=O)[C@@H]1CCCN1C(=O)[C@H](C)NC(=O)CNC(=O)[C@H](CO)NC(=O)[C@H](CO)NC(=O)[C@@H]1CCCN1C(=O)CNC(=O)CNC(=O)[C@H](CCCNC(=N)N)NC(=O)[C@@H](NC(=O)[C@H](CC(C)C)NC(=O)[C@H](Cc1c[nH]c2ccccc12)NC(=O)[C@H](C)NC(=O)[C@@H](NC(=O)[C@H](Cc1ccccc1)NC(=O)[C@H](CCC(=O)O)NC(=O)[C@H](CCCCN)NC(=O)[C@H](C)NC(=O)[C@H](C)NC(=O)[C@H](CCC(=O)O)NC(=O)[C@H](CCC(=O)O)NC(=O)[C@H](CCC(=O)O)NC(=O)[C@H](CC(C)C)NC(=O)[C@H](Cc1ccc(O)cc1)NC(=O)[C@H](CO)NC(=O)[C@H](CO)NC(=O)[C@@H](NC(=O)[C@H](CC(=O)O)NC(=O)[C@H](CO)NC(=O)[C@@H](NC(=O)[C@H](Cc1ccccc1)NC(=O)[C@@H](NC(=O)CNC(=O)[C@H](CCC(=O)O)NC(=O)C(C)(C)NC(=O)[C@@H](N)Cc1c[nH]cn1)[C@@H](C)O)[C@@H](C)O)C(C)C)[C@@H](C)CC)C(C)C)C(=O)O [HS-20004] (H-H[Aib]EGTFTSDVSSYLEEEAAKEFIAWLVRGGPSSGAPPPS-{εLys(Nα-Palmitoyl)}; N-terminus and C-terminus assumed)
- random blood glucose ([2]; 3 μg/kg single s.c., 1 h after administration, X ± s): 20.11 ± 1.28 mmol/L
- decrease rate of random blood glucose ([2]; 3 μg/kg single s.c., 1 h after administration): 15.00%
- decrease rate of random blood glucose ([2]; 3 μg/kg single s.c., 1 h after administration, listed as 20004): 15.00%
- random blood glucose ([2]; 3 μg/kg single s.c., 2 h after administration, X ± s): 18.81 ± 1.50 mmol/L
- decrease rate of random blood glucose ([2]; 3 μg/kg single s.c., 2 h after administration): 16.85%
- random blood glucose ([2]; 3 μg/kg single s.c., 4 h after administration, X ± s): 17.98 ± 1.38 mmol/L
- decrease rate of random blood glucose ([2]; 3 μg/kg single s.c., 4 h after administration): 18.30%
- random blood glucose ([2]; 3 μg/kg single s.c., 8 h after administration, X ± s): 23.30 ± 1.47 mmol/L
- decrease rate of random blood glucose ([2]; 3 μg/kg single s.c., 8 h after administration): 8.22%
- random blood glucose values compared with those of the control group ([2]; 3 μg/kg single s.c., after 2 h and 4 h, P<0.05): kept a lower level and had significant difference
- random blood glucose values compared with those of the control group ([2]; 3 μg/kg single s.c., after 8 hours): no significant difference
- random blood glucose values compared with those of the control group ([2]; 3 μg/kg single s.c., after one hour, P<0.05): decreased significantly
- random blood glucose ([2]; 3 μg/kg single s.c., before administration, X ± s): 25.11 ± 1.63 mmol/L
- decrease rate of random blood glucose ([2]; 10 μg/kg single s.c., 1 h after administration): 36.20%
- random blood glucose ([2]; 10 μg/kg single s.c., 1 h after administration, ± s): 19.63 ± 1.81 mmol/L
- decrease rate of random blood glucose ([2]; 10 μg/kg single s.c., 2 h after administration): 27.82%
- random blood glucose ([2]; 10 μg/kg single s.c., 2 h after administration, ± s): 21.86 ± 1.66 mmol/L
- decrease rate of random blood glucose ([2]; 10 μg/kg single s.c., 4 h after administration): 28.30%
- random blood glucose ([2]; 10 μg/kg single s.c., 4 h after administration, ± s): 21.44 ± 1.68 mmol/L
- decrease rate of random blood glucose ([2]; 10 μg/kg single s.c., 8 h after administration): 23.32%
- random blood glucose ([2]; 10 μg/kg single s.c., 8 h after administration, ± s): 23.80 ± 1.46 mmol/L
- decrease rate of random blood glucose ([2]; 10 μg/kg single s.c., 24 h after administration): 11.52%
- random blood glucose ([2]; 10 μg/kg single s.c., 24 h after administration, ± s): 25.64 ± 1.85 mmol/L
- random blood glucose values compared with those of the control group ([2]; 10 μg/kg single s.c., after 4 h and 8 h): still kept at a lower level
- random blood glucose values compared with those of the control group ([2]; 10 μg/kg single s.c., after 24 hours): not significantly different
- random blood glucose ([2]; 10 μg/kg single s.c., before administration, ± s): 23.18 ± 1.65 mmol/L
- random blood glucose values compared with those of the control group ([2]; 10 μg/kg single s.c., time not specified): decreased immediately and significantly
- effect on reducing random blood glucose compared within the series ([2]; single s.c.): much better effect
- random blood glucose level (words, test conclusions) ([2]; single s.c., dose of 3 μg/kg (so in the source)): decreased obviously
- Emax [3]: 90.8%
